# Measured values published in patent US11542304B2, “Multimeric bicyclic peptide ligands” (BicycleTx Limited, priority 2018, dated 2023).
# How the values were obtained:
# MC38 syngeneic tumors = assay: In vivo efficacy in MC38 syngeneic tumors in C57BL/6J B-h4-1BB humanized mice; conditions: 20 or 30 mg/kg i.v. QAD × 6; compared to CD137 monoclonal antibody agonist; FIG. 7
# Procedure: The MC38 murine colon carcinoma cell line was purchased from Shunran Shanghai Biological Technology Co., Ltd. The cells will be maintained in vitro as monolayer culture in Dulbecco's Modified Eagle's medium (DMEM) supplemented with 10% heat inactivated fetal calf serum, 100 U/mL penicillin and 100 μg/mL streptomycin at 37° C. in an atmosphere of 5% CO2. The tumor cells will be routinely subcultured twice weekly by trypsin-EDTA treatment. Cells growing in an exponential growth phase will be harvested and counted for tumor inoculation. 6-8 week old female C57BL/6J B-h4-1BB humanized mice were subcutaneously injected (in the flank) with MC38 tumor cells (5×10^5) with 0.1 mL PBS for tumor development. Tumor-bearing animals were randomly enrolled into six study groups when the mean tumor size reached approximately 113 mm^3 (Study 1) or 107 mm^3 (Study 2). The test and positive control articles were administrated to the tumor-bearing mice according to predetermined regimens as shown below.
# Test articles were formulated in aqueous vehicle (25 mM Histidine, 10% sucrose pH=7) and administered intravenously or intraperitoneally. CD137 monoclonal antibody agonist was administered by intraperitoneal injection in 0.9% saline.
# Tumor volume was measured three times a week in two dimensions using a caliper, and the volume was expressed in mm3 using the formula: V=0.5a×b2 where a and b were the long and short diameters of the tumor, respectively. Results are represented by mean and the standard deviation (Mean±SD).
# In study 2, mice were sacrificed 21 days after treatment initiation and tumors were harvested for T-cell analysis by flow cytometry. Tumor were cut into small pieces and filtered through a 70 micrometer filter. Lymphocytes were isolated using Histopaque 1083 and resuspended in RPMI 1640 supplemented with 10% fetal bovine serum. Lymphocytes were stained with a cell viability dye (Zombie NIR, Biolegend, #423106) and a panel of antibodies including anti-mouse CD45 (Biolegend, #103138), anti-mouse CD3 (Biolegend, #100328), anti-mouse CD4 (Biolegend, #100438), anti-mouse CD8 (Biolegend, #100759). Stained cells were analysed by Attune N×T Flow Cytometer. T-cell results are expressed as % of CD3+ cells among CD45+ cells. CD8+ T-cell results are expressed as % of CD8+ cells among CD45+CD3+ cells. CD4+ T-cell results are expressed as % of CD4+ cells among CD45+CD3+ cells. Results are represented by mean and the standard deviation (Mean±SD) and the individual values.
# Statistical analysis: Data was analyzed using 2way ANOVA or ordinary One-way ANOVA with Dunnett's test for multiple comparisons, and P<0.05 was considered to be statistically significant. Both statistical analysis and biological observations are taken into consideration. ***p<0.001, **p<0.01, *p<0.05.
# [1] = test system: Pan T-cells (isolated from human PBMCs); assay: T-cell cytokine release assay; assay type: cell-based; conditions: anti-CD3 stimulated T cells, 48 hours; FIG. 14
# Procedure: Healthy human buffy coat was purchased from the Sylvan N. Goldman Oklahoma Blood Institute and shipped fresh. Peripheral blood mononuclear cells (PBMCs) were isolated by Ficoll density gradient centrifugation. Red blood cells were lysed with ACK (Ammonium-Chloride-Potassium) lysis buffer. Pan T-cells were then isolated from total PBMCs using negative magnetic bead selection (Miltenyi MACS human Pan-T cell isolation kit). Pan T-cells were then plated on anti-CD3 coated 96-well plates (0.5 μg/mL) in culture media (RPMI1640 with 10% FBS) plus or minus compounds. Supernatant from cultures was collected after 24 and 48 hours. Cytokine [i.e., interleukin-2 (IL-2), interferon gamma (IFNγ)] release in supernatant was measured by HTRF assay (CisBio) according to the kit's instructions. HTRF assay plates were read on a Clariostar plate reader (BMG Labtech) at 665 nm and 620 nm. Data was analyzed and extrapolated to a standard curve according to the HTRF kit instruction in Prism and Excel. Cytokine release fold change was calculated by dividing the pg/mL of cytokine detected by background cytokine released (CD3 stimulation alone). Data was graphed in Prism as the mean of replicates with standard deviation error bars.
# CD137 [2] = target: T1, CD137 (Homo sapiens, UniProt Q07011); assay: CD137 reporter cell activity washout assay; assay type: cell-based; parameters: host or cells: Jurkat cells; conditions: 10 nM, exposure 30, 60 or 120 minutes, total 6 hours; FIG. 13
# T1 sequence (Q07011 24-255): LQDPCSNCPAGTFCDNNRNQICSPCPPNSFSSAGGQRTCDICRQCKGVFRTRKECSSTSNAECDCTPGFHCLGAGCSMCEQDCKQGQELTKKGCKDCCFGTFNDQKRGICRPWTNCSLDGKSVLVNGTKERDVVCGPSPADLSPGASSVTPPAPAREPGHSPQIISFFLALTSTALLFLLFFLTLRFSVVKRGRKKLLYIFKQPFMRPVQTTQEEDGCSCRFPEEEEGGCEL
# Procedure: Jurkat cells engineered to overexpress CD137 and express a luciferase gene under the NF-κB promoter were purchased from Promega. The reporter cells were incubated with 10 nM of CD137 agonists for the indicated times at 37° C. in RPMI1640 media with 1% FBS. After either 30, 60, or 120 minutes, cells were washed in an excess of culture media and resuspended in 75 μL of fresh media. A no washout condition was also included. All washout conditions were performed in duplicate. Cells then continued to incubate for a total of 6 hours (an additional 5.5, 5, or 4 hours respective to exposure times). After incubation, 75 μL of Bio-Glo reagent (Promega) was added to each well and allowed to equilibrate for 10 minutes at room temperature. Luminescence was read on the Clariostar plate reader (BMG LabTech). Fold induction was calculated by dividing the luminescence signal by background wells (reporter cells with no agonist added). The percent of the maximum fold induction was calculated by dividing the fold induction of the washout time by the fold induction of the no washout condition and multiplying by 100.
# [3] = Pharmacokinetics of Bicycle multimers in CD-1 mice; conditions: 5 mg/kg IV, male CD-1 mice; FIGS. 5A and 5B
# Procedure: Male CD-1 mice were dosed with 5 mg/kg of each Bicycle multimer formulated in 25 mM Histidine HCl, 10% sucrose pH 7 via tail vein injection. Serial bleeding (about 80 μL blood/time point) was performed via submandibular or saphenous vein at each time point. All blood samples were immediately transferred into prechilled microcentrifuge tubes containing 2 μL K2-EDTA (0.5M) as anti-coagulant and placed on wet ice. Blood samples were immediately processed for plasma by centrifugation at approximately 4° C., 3000 g. The precipitant including internal standard was immediately added into the plasma, mixed well and centrifuged at 12,000 rpm, 4° C. for 10 minutes. The supernatant was transferred into pre-labeled polypropylene microcentrifuge tubes, and then quick-frozen over dry ice. The samples were stored at 70° C. or below as needed until analysis. 7.5 μL of the supernatant samples were directly injected for LC-MS/MS analysis using an Orbitrap Q Exactive in positive ion mode to determine the concentrations of Bicycle multimer. Plasma concentration versus time data were analyzed by non-compartmental approaches using the Phoenix WinNonlin 6.3 software program. C0, Cl, Vdss, T1/2, AUC(0-last), AUC(0-inf), MRT(0-last), MRT(0-inf) and graphs of plasma concentration versus time profile were reported.
# [4] = test system: melanoma patient tumour samples; assay: Ex vivo human tumour cell kill assay (3D spheroid culture); conditions: 48 hours
# Procedure: Two frozen, dissociated melanoma patient tumour samples were purchased from Folio Conversant. Cells were thawed quickly at 37° C. and pipetted into 10 mL of Wash Medium [DMEM/F12+1× Penicillin/Streptomycin+50 μg/mL Gentamycin+100 μg/mL G418+100 μg/mL Hygromycin+1× Insulin-Transferrin-Selenium (ITS)+10 mM HEPES] with 1 mg/mL DNaseI added fresh. Cell counts were performed using a haemocytometer and a 1:2 dilution with 0.04% Trypan blue. Cells were spun down and resuspended in Growth Medium [EmbryoMax DMEM+10% heat-inactivated FBS+1× Penicillin/Streptomycin+50 μg/mL Gentamycin+1× GlutaMAX+1 mM Sodium pyruvate+1×ITS+0.4% BSA+4.5 g/L glucose+2.3 g/L sodium bicarbonate+10 mM HEPES+10 ng/mL basic fibroblast growth factor (bFGF)+20 ng/mL epidermal growth factor (EGF)] at 5×10^5 cells/mL. Cells were magnetized as described in the N3D Biosciences manufacturer's protocol. Briefly, NanoShuttle (NS) is added at 1 μL to 1×10^4 cells and mixed in by pipetting. […] Flow cytometry panels used in this experiment analysed the number of lymphocytes and tumour cells present on Days 0 and 2. Tumour cell killing was determined by the decrease in the number of CD45 negative cells in the treated wells versus the untreated control (FIG. 12)—significance was calculated using a 2-way ANOVA.
# CD137 [5] = target: T1, CD137; assay: CD137 Promega reporter cell activity assay (NF-κB luciferase in Jurkat cells)
# Procedure: CD137 binding multimers were evaluated for CD137 using a Reporter cell activity assay that uses NF-κB luciferase luminescence as a read-out of CD137 activation in Jurkat cells. […] Samples were diluted at concentration expected to give the maximum fold induction and then titrated down in 1/3 dilution series or 1/10 dilution series in a sterile 96 well-plate. […] 50 μl cells were added per well to white cell culture plates.
# Cells were co-incubated together with agonists for 6 h at 37° C., 5% CO2. After 6 h Bio-Glo™ was thawed and the assay developed at room-temperature. 75 ul Bio-Glo™ was added per well and incubated for 5-10 min. Luciferase signal was read on a Pherastar plate-reader using MARS program. Data was analysed by transforming the data to x=log (X), then plotting log (agonist) vs. response variable slope (4 parameters) to calculate EC50 values.
smiles,measurement,setting,value
CCCC[C@@H]1NC(=O)[C@H](Cc2ccc(O)cc2)NC(=O)[C@@H]2CCCN2C(=O)[C@H](CC(=O)O)NC(=O)[C@H](C)NC(=O)[C@H](Cc2ccccc2)NC(=O)[C@@H]2CSCCC(=O)N3CN(CN(C3)C(=O)CCSC[C@@H](C(=O)N[C@@H](C)C(N)=O)NC1=O)C(=O)CCSC[C@H](NC(=O)[C@H](C)NC(C)=O)C(=O)N[C@@H]([C@@H](C)CC)C(=O)N[C@@H](CCC(=O)O)C(=O)N[C@@H](CCCCNC(=O)CCc1cn(CCOCCOCCOCCOCCOCCOCCOCCOCCOCCOCCOCCOCCOCCOCCOCCOCCOCCOCCOCCOCCOCCOCCOCCNC(=O)CCOCC(COCCC(=O)NCCOCCOCCOCCOCCOCCOCCOCCOCCOCCOCCOCCOCCOCCOCCOCCOCCOCCOCCOCCOCCOCCOCCOCCn3cc(CCC(=O)NCCCC[C@@H]4NC(=O)[C@H](CCC(=O)O)NC(=O)[C@H]([C@@H](C)CC)NC(=O)[C@@H](NC(=O)[C@H](C)NC(C)=O)CSCCC(=O)N5CN6CN(C5)C(=O)CCSC[C@H](NC(=O)[C@H](Cc5ccc(O)cc5)NC(=O)[C@H](CCC(N)=O)NC(=O)CNC4=O)C(=O)N[C@@H](Cc4ccccc4)C(=O)N[C@@H](C)C(=O)N[C@@H](CC(=O)O)C(=O)N4CCC[C@H]4C(=O)N[C@@H](Cc4ccc(O)cc4)C(=O)N[C@@H](CCCC)C(=O)N[C@H](C(=O)N[C@@H](C)C(N)=O)CSCCC6=O)nn3)(COCCC(=O)NCCOCCOCCOCCOCCOCCOCCOCCOCCOCCOCCOCCOCCOCCOCCOCCOCCOCCOCCOCCOCCOCCOCCOCCn3cc(CCC(=O)NCCCC[C@@H]4NC(=O)[C@H](CCC(=O)O)NC(=O)[C@H]([C@@H](C)CC)NC(=O)[C@@H](NC(=O)[C@H](C)NC(C)=O)CSCCC(=O)N5CN6CN(C5)C(=O)CCSC[C@H](NC(=O)[C@H](Cc5ccc(O)cc5)NC(=O)[C@H](CCC(N)=O)NC(=O)CNC4=O)C(=O)N[C@@H](Cc4ccccc4)C(=O)N[C@@H](C)C(=O)N[C@@H](CC(=O)O)C(=O)N4CCC[C@H]4C(=O)N[C@@H](Cc4ccc(O)cc4)C(=O)N[C@@H](CCCC)C(=O)N[C@H](C(=O)N[C@@H](C)C(N)=O)CSCCC6=O)nn3)COCCC(=O)NCCOCCOCCOCCOCCOCCOCCOCCOCCOCCOCCOCCOCCOCCOCCOCCOCCOCCOCCOCCOCCOCCOCCOCCn3cc(CCC(=O)NCCCC[C@@H]4NC(=O)[C@H](CCC(=O)O)NC(=O)[C@H]([C@@H](C)CC)NC(=O)[C@@H](NC(=O)[C@H](C)NC(C)=O)CSCCC(=O)N5CN6CN(C5)C(=O)CCSC[C@H](NC(=O)[C@H](Cc5ccc(O)cc5)NC(=O)[C@H](CCC(N)=O)NC(=O)CNC4=O)C(=O)N[C@@H](Cc4ccccc4)C(=O)N[C@@H](C)C(=O)N[C@@H](CC(=O)O)C(=O)N4CCC[C@H]4C(=O)N[C@@H](Cc4ccc(O)cc4)C(=O)N[C@@H](CCCC)C(=O)N[C@H](C(=O)N[C@@H](C)C(N)=O)CSCCC6=O)nn3)nn1)C(=O)NCC(=O)N[C@@H](CCC(N)=O)C(=O)N[C@@H](Cc1ccc(O)cc1)C(=O)N2 [BCY7838],"anti-tumor activity (tumor volume), Study 1",MC38 syngeneic tumors,elicits a range of anti-tumor activities
same,"pro-inflammatory cytokine (IL-2, IFNγ) secretion by T-cells",[1],secrete pro-inflammatory cytokines
same,cell activity after washout,CD137 [2],maintain cell activity after washout
same,systemic elimination (plasma concentration after IV dosing),[3],retain the property of rapid systemic elimination
same,lymphocyte numbers (live CD45 positive cells),[4]; FIG. 12B,no significant difference between treatments on lymphocyte numbers
same,tumour cell death (live CD45 negative cells),"[4]; in one melanoma patient sample, but not the other, FIG. 12A",significant tumour cell death
same,Average Fold EC50 Improvement relative to CD137L,CD137 [5]; Average EC50 for CD137L = 14.2 nM,0.73
same,Average Relative Fold Induction relative to CD137L,CD137 [5]; Average fold induction for CD137L = 4.0,2.19
